Measurements reported in ChEMBL document CHEMBL3860036, “Sesquiterpene Hydroquinones with Protein Tyrosine Phosphatase 1B Inhibitory Activities from a Dysidea sp. Marine Sponge Collected in Okinawa” (J Nat Prod, 2016).

What follows are compounds tested against T1, Tyrosine-protein phosphatase non-receptor type 1 (Homo sapiens) (UniProt P18031) (assay: Inhibition of recombinant human PTP1B (1 to 322 residues) expressed in Escherichia coli at 31 uM preincubated for 10 mins followed by pNPP substrate addition measured after 30 mins relative to control). Conditions: not given.
T1 sequence (whole entry): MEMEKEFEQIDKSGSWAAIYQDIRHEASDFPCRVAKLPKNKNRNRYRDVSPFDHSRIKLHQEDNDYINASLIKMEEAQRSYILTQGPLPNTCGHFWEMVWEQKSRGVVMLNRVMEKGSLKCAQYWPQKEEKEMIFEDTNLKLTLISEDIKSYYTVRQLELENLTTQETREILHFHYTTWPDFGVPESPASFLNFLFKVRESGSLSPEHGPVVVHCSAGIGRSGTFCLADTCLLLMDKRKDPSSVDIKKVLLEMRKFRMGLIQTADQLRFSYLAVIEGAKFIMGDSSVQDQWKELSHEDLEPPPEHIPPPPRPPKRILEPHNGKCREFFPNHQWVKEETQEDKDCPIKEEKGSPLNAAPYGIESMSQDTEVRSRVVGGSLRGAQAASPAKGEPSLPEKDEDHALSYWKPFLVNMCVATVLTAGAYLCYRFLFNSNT

Row | Compound | inhibition
1 | C=C1CCC[C@H]2[C@](C)(Cc3cc(OC)ccc3O)[C@@H](C)CC[C@]12C | 50%
2 | COc1ccc(O)c(C[C@]2(C)[C@@H](C)CC[C@]3(C)C(C)=CCC[C@@H]23)c1 | 0%

The compounds below were run against T2, Tyrosine-protein phosphatase non-receptor type 1 (Homo sapiens, UniProt P18031). Conditions: not given.
T2 sequence (P18031 whole entry): T1 sequence (whole entry)

Row | Compound | IC50
3 | CC1=CCC[C@H]2[C@](C)(Cc3cc(O)ccc3O)[C@@H](C)CC[C@]12C [AVAROL] | 12 µM
4 | C=C1CCC[C@H]2[C@](C)(Cc3cc(OC(=O)CC)ccc3OC(=O)CC)[C@@H](C)CC[C@]12C | 9.4 µM
5 | CCC(=O)Oc1ccc(OC(=O)CC)c(C[C@]2(C)[C@@H](C)CC[C@]3(C)C(C)=CCC[C@@H]23)c1 | 8.8 µM
6 | CC(=O)Oc1ccc(O)cc1C[C@]1(C)[C@@H](C)CC[C@]2(C)C(C)=CCC[C@@H]12 | 9.5 µM
7 | CC(=O)Oc1ccc(O)c(C[C@]2(C)[C@@H](C)CC[C@]3(C)C(C)=CCC[C@@H]23)c1 | 10 µM
8 | C=C1CCC[C@H]2[C@](C)(Cc3cc(OC(C)=O)ccc3OC(C)=O)[C@@H](C)CC[C@]12C | 14 µM
9 | CC1=CCC[C@H]2[C@]3(C)Cc4cc(O)ccc4O[C@]3(C)CC[C@]12C | 11 µM
10 | C=C1CCC[C@H]2[C@](C)(Cc3cc(O)ccc3O)[C@@H](C)CC[C@]12C | > 32 µM
11 | CC1=CCC[C@H]2[C@](C)(CC3=CC(=O)C=C(N)C3=O)[C@@H](C)CC[C@]12C | 18 µM
12 | C=C1CCC[C@H]2[C@](C)(Cc3cc(O)ccc3OC(C)=O)[C@@H](C)CC[C@]12C | 6.5 µM
13 | C=C1CCC[C@H]2[C@](C)(Cc3cc(OC(C)=O)ccc3O)[C@@H](C)CC[C@]12C | 8.6 µM

These compounds were tested against T1, Tyrosine-protein phosphatase non-receptor type 1 (Homo sapiens). Conditions: 25 uM.
Description: Inhibition of recombinant human PTP1B (1 to 322 residues) expressed in Escherichia coli at 25 uM preincubated for 10 mins followed by pNPP substrate addition measured after 30 mins relative to control

Row | Compound | inhibition
14 | CC(=O)Oc1ccc(OC(C)=O)c(C[C@]2(C)[C@@H](C)CC[C@]3(C)C(C)=CCC[C@@H]23)c1 | 5%

Each compound was assayed against T1, Tyrosine-protein phosphatase non-receptor type 1 (Homo sapiens). Conditions: 32 uM.
Description: Inhibition of recombinant human PTP1B (1 to 322 residues) expressed in Escherichia coli at 32 uM preincubated for 10 mins followed by pNPP substrate addition measured after 30 mins relative to control

Row | Compound | inhibition
15 | C=C1CCC[C@H]2[C@](C)(Cc3cc(O)ccc3O)[C@@H](C)CC[C@]12C | 35%
